In PMC2957562 (Bioorganic & medicinal chemistry letters, 2010):
pIC50: −log10 of the molar value.

How the values were obtained:
[1] = target: T1, HIV-1 Integrase (Human immunodeficiency virus type 1 group M subtype B, UniProt P04585); assay: HIV-1 integrase 3′-processing inhibition; format: biochemical
[2] = target: T1, HIV-1 Integrase; assay: HIV-1 integrase strand transfer inhibition; format: biochemical

Row | SMILES | pIC50 [1] | pIC50 [2] | Strand Transfer IC50 ([2]; in vitro, strand transfer step)
1 | O=C1/C(=C\c2ccc(O)c(OCc3ccc(F)cc3)c2)C(C(F)(F)F)=NN1c1cccc(Br)c1 [Compound 4f] | < 4.00 |  | 
2 | COc1ccc(/C=C2\C(=O)N(c3cccc(C)c3)N=C2C(F)(F)F)cc1OCc1ccc(F)cc1 [Compound 5b] | < 4.00 | < 4.00 | 
3 | COc1ccc(/C=C2\C(=O)N(c3ccccc3)N=C2C(F)(F)F)cc1OCc1ccc(F)cc1 [Compound 5a] | < 4.00 | < 4.00 | 
4 | COc1ccc(/C=C2\C(=O)N(c3ccc(I)cc3)N=C2C(F)(F)F)cc1OCc1ccc(F)cc1 [Compound 56l] | < 4.00 |  | 
5 | COc1ccc(/C=C2\C(=O)N(c3cccc(I)c3)N=C2C(F)(F)F)cc1OCc1ccc(F)cc1 [Compound 5i] | < 4.00 |  | 
6 | COc1ccc(/C=C2\C(=O)N(c3nc4ccccc4s3)N=C2C(F)(F)F)cc1OCc1ccc(F)cc1 [Compound 5o] | < 4.00 |  | 
7 | COc1ccc(/C=C2\C(=O)N(c3cccc(Br)c3)N=C2OC(C)=O)cc1OCc1ccc(F)cc1 [Compound 6e] | < 4.00 |  | 
8 | COc1ccc(/C=C2\C(=O)N(c3ccc(NS(C)(=O)=O)cc3)N=C2C(F)(F)F)cc1OCc1ccc(F)cc1 [Compound 5n] | < 4.00 | < 4.00 | 
9 | COc1ccc(/C=C2\C(=O)N(c3cccc(F)c3)N=C2C(F)(F)F)cc1OCc1ccc(F)cc1 [Compound 5f] | < 4.00 |  | 
10 | COc1ccc(/C=C2\C(=O)N(c3cccc(Br)c3)N=C2COC(C)=O)cc1OCc1ccc(F)cc1 [Compound 6f] | < 4.00 |  | 
11 | COc1ccc(/C=C2\C(=O)N(c3cccc(Br)c3)N=C2C(F)(F)F)c(OC)c1OC [Compound 4b] | < 4.00 | < 4.00 | 
12 | COc1ccc(/C=C2\C(=O)N(c3cc(Cl)cc(Cl)c3)N=C2C(F)(F)F)cc1OCc1ccc(F)cc1 [Compound 5j] | < 4.00 |  | 
13 | COc1ccc(/C=C2\C(=O)N(c3cccc(Br)c3)N=C2NC(=O)C(F)(F)F)cc1OCc1ccc(F)cc1 [Compound 6d] | < 4.00 | < 4.00 | 
14 | O=C(O)C1=NN(c2cccc([N+](=O)[O-])c2)C(=O)/C1=C\c1ccc(OCc2ccc(F)cc2)c(O)c1 [Compound 14d] |  |  | single-digit micromolar
15 | CCC(=O)OC1=NN(c2cccc(Br)c2)C(=O)/C1=C\c1ccc(OC)c(OCc2ccc(F)cc2)c1 [Compound 6g] | < 4.00 |  | 
16 | COc1ccc(/C=C2\C(=O)N(c3cccc(Br)c3)N=C2C)cc1OCc1ccc(F)cc1 [Compound 6a] | < 4.00 | < 4.00 | 
17 | CCC1=NN(c2cccc(Br)c2)C(=O)/C1=C\c1ccc(OC)c(OCc2ccc(F)cc2)c1 [Compound 6b] | < 4.00 | < 4.00 | 
18 | COc1ccc(/C=C2\C(=O)N(c3cccc(-c4ccccc4)c3)N=C2C(F)(F)F)cc1OCc1ccc(F)cc1 [Compound 5d] | < 4.00 |  | 
19 | COc1ccc(/C=C2\C(=O)N(c3ccc(C(=O)O)cc3)N=C2C(F)(F)F)cc1OCc1ccc(F)cc1 [Compound 5m] | < 4.00 |  | 
